Drawing on patent US8476253B2, “Amide derivative” (Daiichi Sankyo Company, Limited, priority 2009, dated 2013), this text covers ED50 and ID50 for 8 compounds.

Counter-ions that a name gives are not always drawn.

The target in one assay is T1, neurokinin NK1 receptor (Cavia porcellus, UniProt P30547).
T1 construct: Using healthy guinea pigs (body weight, 350 to 550 g; Hartley male guinea pigs); from tissue; host or cells: live anaesthetised Hartley male guinea pigs (airway, in vivo)
In words: Effect of suppressing substance P-induced airway contraction (in vivo, intratracheal administration). Further details: species or system guinea pig. Particulars: guinea pigs, intratracheal administration 60 minutes before 20 μg/kg i.v. SP, AUC of increase in airway pressure over 10 minutes; for ED50: guinea pig, read-out: ID50 (the source's name). Put shortly:
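Anaesthetised, gallamine-paralysed, ventilated male Hartley guinea pigs; compound in 5% glucose given intratracheally 60 min before 20 μg/kg i.v. substance P. Airway-pressure increase AUC over 10 min, inhibition versus vehicle group, expressed as ID50.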

A further assay has as its target T2, neurokinin NK2 receptor (Cavia porcellus, UniProt Q64077).
T2 construct: Using healthy guinea pigs (body weight, 350 to 550 g; Hartley male guinea pigs); from tissue; host or cells: live anaesthetised Hartley male guinea pigs (airway, in vivo)
T2 sequence (Q64077 1-402): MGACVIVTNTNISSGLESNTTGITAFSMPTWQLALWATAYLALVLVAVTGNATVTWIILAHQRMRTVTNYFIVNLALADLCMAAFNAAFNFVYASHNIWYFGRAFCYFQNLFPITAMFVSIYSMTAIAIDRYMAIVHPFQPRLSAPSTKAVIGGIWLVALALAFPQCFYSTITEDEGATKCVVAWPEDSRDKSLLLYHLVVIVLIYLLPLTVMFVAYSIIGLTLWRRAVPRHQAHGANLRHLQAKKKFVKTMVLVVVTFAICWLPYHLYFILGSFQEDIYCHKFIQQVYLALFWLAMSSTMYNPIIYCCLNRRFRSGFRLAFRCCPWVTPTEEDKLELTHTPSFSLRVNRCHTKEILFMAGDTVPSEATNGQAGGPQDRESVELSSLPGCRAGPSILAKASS
In words: Effect of suppressing neurokinin A-induced airway contraction (in vivo, intratracheal administration). Particulars: guinea pigs, intratracheal administration 60 minutes before 4 μg/kg i.v. NKA, AUC of increase in airway pressure over 10 minutes; for ED50: guinea pig, read-out: ID50 (the source's name). Further details: species or system guinea pig. Put shortly:
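Anesthetized, gallamine-paralysed, ventilated male Hartley guinea pigs received compound in 5% glucose intratracheally 60 minutes before 4 μg/kg NKA i.v. AUC of airway pressure increase over 10 minutes gave inhibition versus vehicle controls, expressed as ID50.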

T1 sequence (P30547 whole entry): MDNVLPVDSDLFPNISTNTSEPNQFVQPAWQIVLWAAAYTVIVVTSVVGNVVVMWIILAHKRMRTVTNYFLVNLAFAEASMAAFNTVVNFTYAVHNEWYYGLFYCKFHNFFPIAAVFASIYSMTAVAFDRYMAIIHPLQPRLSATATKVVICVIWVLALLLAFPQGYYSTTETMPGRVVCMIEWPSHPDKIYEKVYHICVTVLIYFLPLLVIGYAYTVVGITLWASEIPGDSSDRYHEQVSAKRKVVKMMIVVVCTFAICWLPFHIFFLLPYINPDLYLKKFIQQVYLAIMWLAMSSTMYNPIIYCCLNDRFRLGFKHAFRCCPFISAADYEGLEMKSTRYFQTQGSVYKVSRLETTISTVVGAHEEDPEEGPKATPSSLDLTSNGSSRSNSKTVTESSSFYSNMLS

Turning to `CN(CCN1CCC(OC(=O)Nc2ccccc2-c2ccccc2)CC1)C(=O)CCCCCNc1ncc(C(=O)N(C)CCCN(C)C(=O)CO[C@H]2Cc3ccccc3C23CCN(CC[C@@]2(c4ccc(F)cc4)CN(C(=O)c4cc(C(F)(F)F)cc(C(F)(F)F)c4)CO2)CC3)cn1` [Example 14, 1-(2-{[6-({5-[{3-[({[(2S)-1′-{2-[(5R)-3-[3,5-Bis(trifluoromethyl)benzoyl]-5-(4-fluorophenyl)-1,3-oxazolidin-5-yl]ethyl}-2,3-dihydrospiro[indene-1,4′-piperidin]-2-yl]oxy}acetyl)(methyl)amino]propyl}(methyl)carbamoyl]pyrimidin-2-yl}amino)hexanoyl](methyl)amino}ethyl)piperidin-4-yl biphenyl-2-ylcarbamate trihydrochloride], the ED50 on neurokinin NK1 receptor stood at 0.0172 mg/kg; on neurokinin NK2 receptor, 0.0284 mg/kg.

Take `CN(CCN1CCC(OC(=O)Nc2ccccc2-c2ccccc2)CC1)C(=O)CCCCCNc1nc2ccc(C(=O)N(C)CCCN(C)C(=O)CO[C@H]3Cc4ccccc4C34CCN(CC[C@@]3(c5ccc(F)cc5)CN(C(=O)c5cc(C(F)(F)F)cc(C(F)(F)F)c5)CO3)CC4)cc2s1` [Example 93, 1-(2-{[6-({6-[{3-[({[(2S)-1′-{2-[(5R)-3-[3,5-Bis(trifluoromethyl)benzoyl]-5-(4-fluorophenyl)-1,3-oxazolidin-5-yl]ethyl}-2,3-dihydrospiro[indene-1,4′-piperidin]-2-yl]oxy}acetyl)(methy)amino]propyl}(methyl)carbamoyl]-1,3-benzothiazol-2-yl}amino)hexanoyl](methyl)amino}ethyl)piperidin-4-yl biphenyl-2-ylcarbamate]: the ID50 came out at 0.0416 mg/kg at neurokinin NK1 receptor and 0.0437 mg/kg on neurokinin NK2 receptor.

For `CN(CCN1CCC(OC(=O)Nc2ccccc2-c2ccccc2)CC1)C(=O)CCCCCN(C)c1ccc(C(=O)N(C)CCCN(C)C(=O)CO[C@H]2Cc3ccccc3C23CCN(CC[C@@]2(c4ccc(F)cc4)CN(C(=O)c4cc(C(F)(F)F)cc(C(F)(F)F)c4)CO2)CC3)cc1` [Example 76, 1-{2-[{6-[{4-[{3-[({[(2S)-1′-{2-[(5R)-3-[3,5-Bis(trifluoromethyl)benzoyl]-5-(4-fluorophenyl)-1,3-oxazolidin-5-yl]ethyl}-2,3-dihydrospiro[indene-1,4′-piperidin]-2-yl]oxy}acetyl)(methyl)amino]propyl}(methyl)carbamoyl]phenyl}(methyl)amino]hexanoyl}(methyl)amino]ethyl}piperidin-4-yl biphenyl-2-ylcarbamate], the ED50 came to 0.0622 mg/kg on neurokinin NK1 receptor and 0.0176 mg/kg at neurokinin NK2 receptor.

In the case of `Cc1cc(NCCCCCC(=O)N(C)CCN2CCC(OC(=O)Nc3ccccc3-c3ccccc3)CC2)sc1C(=O)N(C)CCCN(C)C(=O)CO[C@H]1Cc2ccccc2C12CCN(CC[C@@]1(c3ccc(F)cc3)CN(C(=O)c3cc(C(F)(F)F)cc(C(F)(F)F)c3)CO1)CC2` [Example 30, 1-(2-{[6-({5-[{3-[({[(2S)-1′-{2-[(5R)-3-[3,5-Bis(trifluoromethyl)benzoyl]-5-(4-fluorophenyl)-1,3-oxazolidin-5-yl]ethyl}-2,3-dihydrospiro[indene-1,4′-piperidin]-2-yl]oxy}acetyl)(methyl)amino]propyl}(methyl)carbamoyl]-4-methyl-2-thienyl}amino)hexanoyl](methyl)amino}ethyl)piperidin-4-yl biphenyl-2-ylcarbamate trihydrochloride], the ED50 on neurokinin NK1 receptor is 0.0388 mg/kg; at neurokinin NK2 receptor, 0.0632 mg/kg.

`CN(CCN1CCC(OC(=O)Nc2ccccc2-c2ccccc2)CC1)C(=O)CCCCNc1ccc(C(=O)N(C)CCCN(C)C(=O)CO[C@H]2Cc3ccccc3C23CCN(CC[C@@]2(c4ccc(F)cc4)CN(C(=O)c4cc(C(F)(F)F)cc(C(F)(F)F)c4)CO2)CC3)cc1` [Example 32, 1-(2-{[5-({4-[{3-[({[(2S)-1′-{2-[(5R)-3-[3,5-Bis(trifluoromethyl)benzoyl]-5-(4-fluorophenyl)-1,3-oxazolidin-5-yl]ethyl}-2,3-dihydrospiro[indene-1,4′-piperidin]-2-yl]oxy}acetyl)(methyl)amino]propyl}(methyl)carbamoyl]phenyl}amino)pentanoyl](methyl)amino}ethyl)piperidin-4-yl biphenyl-2-ylcarbamate trihydrochloride]: the ED50 on neurokinin NK1 receptor turned out to be 0.0202 mg/kg; on neurokinin NK2 receptor, 0.0356 mg/kg.

With `CN(CCCCCC(=O)N(C)CCN1CCC(OC(=O)Nc2ccccc2-c2ccccc2)CC1)Cc1ccc(C(=O)N(C)CCCN(C)C(=O)CO[C@H]2Cc3ccccc3C23CCN(CC[C@@]2(c4ccc(F)cc4)CN(C(=O)c4cc(C(F)(F)F)cc(C(F)(F)F)c4)CO2)CC3)cc1` [Example 74, 1-{2-[{6-[{4-[{3-[({[(2S)-1′-{2-[(5R)-3-[3,5-Bis(trifluoromethyl)benzoyl]-5-(4-fluorophenyl)-1,3-oxazolidin-5-yl]ethyl}-2,3-dihydrospiro[indene-1,4′-piperidin]-2-yl]oxy}acetyl)(methyl)amino]propyl}(methyl)carbamoyl]benzyl}(methyl)amino]hexanoyl}(methyl)amino]ethyl}piperidin-4-yl biphenyl-2-ylcarbamate], the ED50 on neurokinin NK1 receptor was determined as 0.0174 mg/kg; at neurokinin NK2 receptor, 0.0127 mg/kg.

Regarding `CN(CCN1CCC(OC(=O)Nc2ccccc2-c2ccccc2)CC1)C(=O)CCN(C)c1ccc(C(=O)N(C)CCCN(C)C(=O)CO[C@H]2Cc3ccccc3C23CCN(CC[C@@]2(c4ccc(F)cc4)CN(C(=O)c4cc(C(F)(F)F)cc(C(F)(F)F)c4)CO2)CC3)cc1` [Example 95, 1-{2-[(N-{4-[{3-[({[(2S)-1′-{2-[(5R)-3-[3,5-Bis(trifluoromethyl)benzoyl]-5-(4-fluorophenyl)-1,3-oxazolidin-5-yl]ethyl}-2,3-dihydrospiro[indene-1,4′-piperidin]-2-yl]oxy}acetyl)(methy)amino]propyl}(methyl)carbamoyl]phenyl}-N-methyl-β-alanyl)(methyl)amino]ethyl}piperidin-4-yl biphenyl-2-ylcarbamate], the ED50 on neurokinin NK1 receptor was 0.0225 mg/kg; at neurokinin NK2 receptor it was 0.039 mg/kg.

Consider `CN(CCN1CCC(OC(=O)Nc2ccccc2-c2ccccc2)CC1)C(=O)CCCCCNc1ccc(N(C)C(=O)CCCN(C)C(=O)CO[C@H]2Cc3ccccc3C23CCN(CC[C@@]2(c4ccc(F)cc4)CN(C(=O)c4cc(C(F)(F)F)cc(C(F)(F)F)c4)CO2)CC3)cc1` [Example 84, 1-(2-{[6-({4-[{-4-[({[(2S)-1′-{2-[(5R)-3-[3,5-Bis(trifluoromethyl)benzoyl]-5-(4-fluorophenyl)-1,3-oxazolidin-5-yl]ethyl}-2,3-dihydrospiro[indene-1,4′-piperidin]-2-yl]oxy}acetyl)(methyl)amino]butanoyl}(methyl)amino]phenyl}amino)hexanoyl](methyl)amino}ethyl)piperidin-4-yl biphenyl-2-ylcarbamate trihydrochloride], for which the values for the ED50 at neurokinin NK1 receptor and on neurokinin NK2 receptor were 0.0357 mg/kg and 0.0221 mg/kg, respectively.
